From patent US9918983B2, “Suicidal LSD1 inhibitors targeting SOX2-expressing cancer cells” (THE BOARD OF REGENTS OF THE NEVADA SYSTEM OF HIGHER …, priority 2013, dated 2018)

Legend:
[1] = test system: G401 cells; experiment: Cell growth/viability (MTT, microscopy); assay type: cell-based, human; settings: 50 μM, 30 hours
Procedure: Lung, breast, ovarian, and other carcinoma cells were either obtained from American Type Culture Collection (ATCC) or from the DTP and DCTD Tumor Repository of National Cancer Institute (the NCI-60 cancer cell line panel), operated by Charles River Laboratory, Inc., as listed in Table 1. They were cultured according to instructions and treated with various concentrations of LSD1 inhibitors for 30-36 hours for mRNA analysis by quantitative real time RT-PCR or for 30-48 hours for protein analysis and the cell viability assays using Western blotting or microscopy and MTT assays as described previously (Wang, J., et al. (2011) Cancer Research 71, 7238-7249).
Alternatively, cell viability assays were conducted as previously described (Wang, J., et al. (2011) Cancer Research 71, 7238-7249). […] After removing the medium, 200 μL DMSO was added to dissolve formazan, followed by incubation for 10 minutes, and absorbance was measured at 490 nm by a Bio Red microplate reader. […] The cell viability rate was calculated as the relative percentage of MTT absorption as follows: % cell viability=(mean experimental absorbance/mean control absorbance)×100.
Referring to FIG. 10B, Sox2-expressing myelogenous leukemia and rhabdoid tumor cells were also sensitive to LSD1 inhibitors. […] The statistical differences between compound treated and control groups were analyzed by One-way ANOVA. *: p<0.05 and **: p<0.01.

[2] = biological target: T1, recombinant HDAC1 (GST-HDAC1) (Homo sapiens, UniProt Q13547); experiment: In vitro deacetylation assay, recombinant HDAC1, H4K16ac peptide; assay type: biochemical; settings: LSD1 and HDAC1 without CoREST
T1 construct: Human LSD1 and HDAC1 full-length cDNAs were obtained from Open Biosystems; GST (N, cleaved yes); made in house; host or cells: Escherichia coli BL21
From the text: Human LSD1 and HDAC1 full-length cDNAs were obtained from Open Biosystems. […] These cDNAs were fully sequenced and cloned into the pGEX-KG or pET28a vector and expressed as the glutathione S-transferase (GST)- or His-tagged fusion proteins in the Escherichia coli BL21 strain and affinity purified with glutathione or Ni-Sepharose (GE Healthcare, United Kingdom) resin. […] The GST tag and uncut GST-HDAC1/GST-LSD1 proteins were depleted by glutathione-Sepharose. For the reconstitution reaction, recombinant GST-CoREST, His-LSD1, and recombinant HDAC1 (rHDAC1) (GST was removed by the use of PreScission protease) (10 μg) were assembled into the LSD1-CoREST-HDAC1 complex and then pulled down by GSTSepharose resins. Protein A-Sepharose was used as a negative-control resin.
(§1) The percentages of deacetylated products were analyzed by mass spectrometry, and the data were analyzed by GraphPad Prism (version 5) software.

[3] = test system: histone H3 and H4 methylation and acetylation; experiment: Histone modifications in F9 cells (Western blotting); assay type: cell-based, mouse
Procedure: To quantify and compare the protein band densities in the Western blots shown in the figures, a titration by serial dilution of the siRNA protein samples for mES cell lysates was used as a reference. The concentration of titration samples was measured by use of a NanoDrop 2000 apparatus, and the protein concentration of all titration samples was adjusted to 1 μg/μL. The protein samples were loaded onto an SDS-polyacrylamide gel at levels ranging from 1 μg to 13 μg at 2-μg intervals and immune blotted with each antibody, including anti-LSD1, anti-HDAC1, and anti-histone H3 antibodies, with three independent loadings. The Western blots were developed with exposure times ranging from 30 s to 1 min. The exposure density of each band was scanned by Adobe Photoshop Elements (version 4.0) software using a CanonScan 8600F scanner (Canon, Calif.) and was subsequently quantified by use of the area density tool of Gel-Pro Analyzer (version 4.0) software (Media Cybernetics, Inc.) and plotted. The regression analysis of each signal was performed by use of the Microsoft Excel program's Analysis Tool Pak regression option. […] The amount of the protein band in the Western blot shown in the figures was quantified by scanning, as described for the reference titration. […] The quantity of protein band densities between two protein samples was externally corrected by use of the reference plots. […] The statistical differences between the experimental and control groups were analyzed by one-way analysis of variance (ANOVA). […]
Referring to FIG. 28D, time course analyses of the effects of 50 μM LSD1 inhibitor CBB1007 on histone modifications in F9 cells are shown, but with a shorter time course than above. The mean density of each band was quantified by the use of Gel-Pro Analyzer (version 4.0) software, and error bars represent SEMs for duplicate samples. […] The statistical differences were analyzed by one-way ANOVA. *, P_0.05; **, P_0.01. […]

[4] = biological target: T2, LSD1-protein A complex (Mus musculus, UniProt Q6ZQ88); experiment: In vitro demethylation assay, immunoaffinity-purified LSD1-protein A complex from F9 cells; assay type: biochemical; settings: dimethylated H3K4 peptide; 50 μM CBB1007 or 2 μM MS-275
T2 construct: recombinant and endogenous LSD1 complexes isolated from F9 cells; endogenous in cells; host or cells: F9 mouse teratocarcinoma cells, anti-LSD1 immunoprecipitate on protein A-Sepharose
Procedure: The immunocomplexes were captured by protein A-Sepharose. Isolated LSD1-protein A or HDAC1-protein A complexes were verified by Western blotting with LSD1 and HDAC1 antibodies.
as §1

T1 sequence (Q13547 whole entry): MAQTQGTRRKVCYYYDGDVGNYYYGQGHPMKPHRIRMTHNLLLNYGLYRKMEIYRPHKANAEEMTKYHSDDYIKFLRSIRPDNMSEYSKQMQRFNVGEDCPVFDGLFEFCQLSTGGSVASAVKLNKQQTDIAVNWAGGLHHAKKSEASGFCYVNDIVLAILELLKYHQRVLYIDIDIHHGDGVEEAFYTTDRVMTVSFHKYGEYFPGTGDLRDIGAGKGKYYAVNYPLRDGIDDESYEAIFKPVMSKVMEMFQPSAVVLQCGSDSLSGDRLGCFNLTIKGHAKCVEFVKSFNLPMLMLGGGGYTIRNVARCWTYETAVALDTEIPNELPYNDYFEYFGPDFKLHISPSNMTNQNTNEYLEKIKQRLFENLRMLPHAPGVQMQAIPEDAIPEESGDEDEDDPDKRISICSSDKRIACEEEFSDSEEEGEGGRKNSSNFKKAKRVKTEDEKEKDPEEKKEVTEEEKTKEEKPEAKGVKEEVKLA

COC(=O)c1cc(CN2CCN(C(=N)N)CC2)cc(C(=O)N2CCN(C(=O)c3ccc(C(=N)N)cc3)CC2)c1 [CBB1007]
cell growth [1]: inhibited | HDAC1 activity in the absence of CoREST [2]: not inhibited | H3K4 methylation of oligonucleosomes from treated cells [3]: hypermethylated on H3K4 | time to increases of acetylation at H4K16 and H3K56 and mono- and dimethylation at H3K4 ([3]; 50 μM): ≤ 20 min | demethylation activity of immunoaffinity-purified LSD1 (LSD1-protein A) [4]: sensitive
